Assays:
[1] = system: plasma protein; conditions: cited from earlier work
[2] = format: in vivo, human; conditions: oral, post-dose fasting time 120 min, model-derived
[3] = format: in vivo, human; conditions: subjects with T2D, N = 55, oral, recommended dosing conditions; geometric mean of typical PK parameter values for each subject
[4] = reducing gastric pH with omeprazole; cited from earlier work

- Bioavailability, plateau with longer post-dose fasting time [2]: around 1.4%
- ka (absorption rate) [3]: 2.09 h⁻¹
SMILES: CC[C@H](C)[C@H](NC(=O)[C@H](Cc1ccccc1)NC(=O)[C@H](CCC(=O)O)NC(=O)[C@H](CCCCNC(=O)COCCOCCNC(=O)COCCOCCNC(=O)CC[C@H](NC(=O)CCCCCCCCCCCCCCCCC(=O)O)C(=O)O)NC(=O)[C@H](C)NC(=O)[C@H](C)NC(=O)[C@H](CCC(N)=O)NC(=O)CNC(=O)[C@H](CCC(=O)O)NC(=O)[C@H](CC(C)C)NC(=O)[C@H](Cc1ccc(O)cc1)NC(=O)[C@H](CO)NC(=O)[C@H](CO)NC(=O)[C@@H](NC(=O)[C@H](CC(=O)O)NC(=O)[C@H](CO)NC(=O)[C@@H](NC(=O)[C@H](Cc1ccccc1)NC(=O)[C@@H](NC(=O)CNC(=O)[C@H](CCC(=O)O)NC(=O)C(C)(C)NC(=O)[C@@H](N)Cc1cnc[nH]1)[C@@H](C)O)[C@@H](C)O)C(C)C)C(=O)N[C@@H](C)C(=O)N[C@@H](Cc1c[nH]c2ccccc12)C(=O)N[C@@H](CC(C)C)C(=O)N[C@H](C(=O)N[C@@H](CCCNC(=N)N)C(=O)NCC(=O)N[C@@H](CCCNC(=N)N)C(=O)NCC(=O)O)C(C)C [semaglutide]
- Plasma protein binding [1]: > 99%
- Change in semaglutide exposure [4]: small but not clinically relevant increase
